Measurements reported in patent publication US20220073536A1 (Rigel Pharmaceuticals, Inc., priority 2003, published 2022).
Structures can show the parent of a compound that is named as a salt.

Tested on: cultured human mast cells (CHMC)
Test: CHMC low cell density IgE activation: tryptase assay
Assay type: cell-based
Details: Homo sapiens, Mast cell, low cell density CHMC, IgE activation, tryptase, 3 pt; read-out: LD Tryptase, CHMC, IgE, 3 pt
Outline: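 Low-density CHMC, 1000-1500 cells/well in MT; 1 hr 37 °C; anti-IgE challenge 30 min 37 °C; supernatant tryptase via fluorogenic substrate, 30 min RT.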

Row | Compound | IC50 [µM]
1 | COc1cc(Nc2ncc(F)c(Nc3ccc4c(c3)OCO4)n2)cc(C(F)(F)F)c1 [Compound 373, 5-Fluoro-N4-(3,4-methylenedioxyphenyl)-N2-(3-methoxy-5-trifluoromethylphenyl)-2,4-pyrimidinediamine] | < 10
2 | Cc1cc(Nc2ncc(F)c(Nc3ccc4c(c3)OCO4)n2)cc(C(F)(F)F)c1 [Compound 374] | > 10
3 | Fc1cnc(Nc2cc(Cl)cc(Cl)c2)nc1Nc1ccc2c(c1)OCO2 [Compound 375] | < 10
4 | COc1ccc(Nc2nc(Nc3cc(OC)c(Cl)cc3OC)ncc2F)cc1Cl [Compound 377] | < 10
5 | COc1cc(Nc2ncc(F)c(Nc3ccc4c(c3)OCCO4)n2)c(OC)cc1Cl [Compound 379] | < 10
6 | COc1cc(Nc2nc(Nc3cc(OC)c(Cl)cc3OC)ncc2F)cc(OC)c1 [Compound 380] | < 10
7 | COC(=O)c1cc2cc(Nc3ncc(F)c(Nc4cc(OC)cc(OC)c4)n3)ccc2o1 [Compound 381] | < 10
8 | COc1cc(Nc2nc(Nc3cccc4cc(C(=O)O)[nH]c34)ncc2F)cc(OC)c1 [Compound 383] | < 10

Same assay, conditions: Homo sapiens, Mast cell, low cell density CHMC, IgE activation, tryptase, 8 pt; read-out: LD Tryptase, CHMC, IgE, 8 pt

Row | Compound | IC50 [µM]
9 | Cc1cc(C)cc(Nc2ncc(F)c(Nc3ccc4c(c3)OCO4)n2)c1 [Compound 376] | < 10
10 | COc1ccc(Nc2ncc(F)c(Nc3ccc4c(c3)NC(=O)C(C)(C)O4)n2)cc1Cl [Compound 378, N2-(3-Chloro-4-methoxyphenyl)-N4-(2,2-dimethyl-3-oxo-4H-benz[1,4]oxazin-6-yl)-5-fluoro-2,4-pyrimidinediamine p-Toluene Sulfonic Acid Salt] | < 10
11 | COC(=O)c1cc2cc(Nc3ncc(F)c(Nc4cc(OC)cc(OC)c4)n3)ccc2o1 [Compound 381] | < 10

Same assay, conditions: Homo sapiens, Mast cell, low cell density, IgE activation, 3 pt; read-out: LD Tryptase, CHMC, IgE, 3 pt

Row | Compound | IC50 [µM]
12 | CNC(=O)c1ccc(Nc2nc(Nc3ccc(Cl)c(C(=O)NC)c3)ncc2F)cc1Cl [Compound 484] | > 10
13 | CNC(=O)c1ccc(Nc2nc(Nc3ccc4cc[nH]c4c3)ncc2F)cc1Cl [Compound 485, N4-[3-Chloro-4-(N-methylamino)carbonylphenyl]-5-fluoro-N2-(indol-6-yl)-2,4-pyrimidinediamine] | < 10
14 | Oc1cccc(Nc2nc(Nc3cccc(-c4ncco4)c3)ncc2F)c1 [Compound 511, 5-Fluoro-N4-(3-hydroxyphenyl)-N2-[3-(oxazol-2-yl)phenyl]-2,4-pyrimidinediamine] | < 10
15 | Oc1cccc(Nc2nc(Nc3cccc(-c4ncon4)c3)ncc2F)c1 [Compound 522] | < 10
16 | COc1cc(N(C)c2nc(Cl)ncc2F)cc(OC)c1OC [Compound 523] | > 10
17 | Cc1cc(Nc2nc(Nc3cccc(-c4ncco4)c3)ncc2F)no1 [Compound 524, 5-Fluoro-N4-(5-methylisoxazol-3-yl)-N2-[3-(oxazol-2-yl)phenyl]-2,4-pyrimidinediamine] | < 10
18 | Cc1onc(-c2ccccc2)c1Nc1nc(Nc2cccc(-c3ncco3)c2)ncc1F [Compound 525] | < 10
19 | Cn1nc(-c2ccccc2)cc1Nc1nc(Nc2cccc(-c3ncco3)c2)ncc1F [Compound 526] | < 10
20 | COC(=O)c1cc(Nc2ncc(F)c(Nc3cc(C(=O)OC)cc(-c4ncco4)c3)n2)cc(-c2ncco2)c1 [Compound 527] | < 10
21 | Cc1noc(C)c1Nc1ncc(F)c(Nc2c(C)noc2C)n1 [Compound 528] | > 10
22 | Fc1cnc(Nc2cc(-c3ncco3)cc(C(F)(F)F)c2)nc1Nc1cc(-c2ncco2)cc(C(F)(F)F)c1 [Compound 529] | < 10
23 | Cc1noc(C)c1Nc1nc(Nc2cccc(-c3ncco3)c2)ncc1F [Compound 534, N4-(3,5-Dimethylisoxazol-4-yl)-5-fluoro-N2-[3-(oxazol-2-yl)phenyl]-2,4-pyrimidinediamine] | < 10
24 | COC(=O)c1cc(Nc2ncc(F)c(Nc3c(C)noc3C)n2)cc(-c2ncco2)c1 [Compound 535] | < 10
25 | COc1cc(Nc2ncc(F)c(Nc3ccc4c(c3)NC(=O)C(C)(C)O4)n2)cc(OC)c1OC [Compound 543] | < 10
26 | COc1cc(Nc2ncc(F)c(Nc3ccc(OC)c(N)n3)n2)cc(OC)c1 [Compound 544] | < 10
27 | COc1ccc(Nc2nc(Nc3cc(OC)c(OC)c(OC)c3)ncc2F)nc1N [Compound 545] | < 10
28 | COC(=O)c1cc2cc(Nc3ncc(F)c(Nc4ccc(OC)c(N)n4)n3)ccc2o1 [Compound 546] | < 10
29 | COc1c(Cl)cc(Nc2nc(Nc3cc(Cl)c(O)c(Cl)c3)ncc2F)cc1Cl [Compound 548] | < 10
30 | Cc1cc(C)cc(Nc2nc(Nc3cc(Cl)cc(Cl)c3)ncc2F)c1 [Compound 556] | < 10
31 | CNC(=O)c1cc2cccc(Nc3ncc(F)c(Nc4cc(OC)cc(C(F)(F)F)c4)n3)c2[nH]1 [Compound 558, 5-Fluoro-N4-(3-methoxy-5-trifluoromethylphenyl)-N2-[2-(N-methylamino)carbonylindol-7-yl]-2,4-pyrimidinediamine] | < 10
32 | Cc1cc(C)cc(Nc2nc(Nc3cc(Cl)c(O)c(Cl)c3)ncc2F)c1 [Compound 559] | < 10
33 | Cc1cc(C)cc(Nc2nc(Nc3cc(C)c(Cl)c(C)c3)ncc2F)c1 [Compound 560] | > 10

Same assay, conditions: Homo sapiens, Mast cell, low cell density, IgE activation, 8 pt; read-out: LD Tryptase, CHMC, IgE, 8 pt

Row | Compound | IC50 [µM]
34 | CNC(=O)c1ccc(Nc2nc(Nc3ccc4cc[nH]c4c3)ncc2F)cc1Cl [Compound 485, N4-[3-Chloro-4-(N-methylamino)carbonylphenyl]-5-fluoro-N2-(indol-6-yl)-2,4-pyrimidinediamine] | < 10
35 | CC1(C)Oc2ccc(Nc3nc(Nc4ccc5nc(C(F)(F)F)[nH]c5c4)ncc3F)cc2NC1=O [Compound 539, N4-(2,2-Dimethyl-3-oxo-4H-benz[1,4]oxazin-6-yl)-5-fluoro-N2-(2-trifluoromethyl-3H-benzimidazol-5-yl)-2,4-pyrimidinediamine p-Toluenesulfonic Acid Salt] | < 10
36 | COc1cc(Nc2ncc(F)c(Nc3ccc4c(c3)NC(=O)C(C)(C)O4)n2)cc(OC)c1OC [Compound 543] | < 10
37 | COc1c(Cl)cc(Nc2nc(Nc3cc(Cl)c(O)c(Cl)c3)ncc2F)cc1Cl [Compound 548] | < 10
38 | COc1cc(Nc2ncc(F)c(Nc3cc(C)cc(C)c3)n2)cc(OC)c1OC [Compound 553] | < 10
39 | Cc1cc(C)cc(Nc2nc(Nc3cc(C)c(O)c(Cl)c3)ncc2F)c1 [Compound 554] | < 10
40 | Cc1cc(C)cc(Nc2nc(Nc3cc(Cl)cc(Cl)c3)ncc2F)c1 [Compound 556] | < 10
41 | CNC(=O)c1cc2cccc(Nc3ncc(F)c(Nc4cc(C)cc(C)c4)n3)c2[nH]1 [Compound 557, N4-(3,5-Dimethylphenyl)-5-fluoro-N2-[2-(N-methylamino)carbonylindol-7-yl]-2,4-pyrimidinediamine] | > 10
42 | Cc1cc(C)cc(Nc2nc(Nc3cc(Cl)c(O)c(Cl)c3)ncc2F)c1 [Compound 559] | < 10

Same assay, conditions: low cell density CHMC, IgE activation, tryptase release, 3 point; read-out: LD Tryptase, CHMC, IgE, 3 pt

Row | Compound | IC50 [µM]
43 | Fc1cnc(Nc2cc(Cl)cc(Cl)c2)nc1Nc1ccc2c(c1)OC(F)(F)O2 [Compound 565] | < 10
44 | Cc1cc(Nc2ncc(F)c(Nc3ccc4c(c3)OC(F)(F)O4)n2)cc(C)c1Cl [Compound 566] | > 10
45 | COc1cc(Nc2ncc(F)c(Nc3ccc4c(c3)OC(F)(F)O4)n2)cc(C(F)(F)F)c1 [Compound 568] | > 10
46 | Cc1cc(Nc2ncc(F)c(Nc3ccc4c(c3)OC(F)(F)O4)n2)cc(C(F)(F)F)c1 [Compound 569] | < 10

Same assay, conditions: low cell density CHMC, IgE activation, tryptase, 8 pt; read-out: LD Tryptase, CHMC, IgE, 8 pt

Row | Compound | IC50 [µM]
47 | COC(=O)C(C)(C)Oc1ccc(Nc2nc(Nc3cc(C)cc(C)c3)ncc2F)cc1Cl [Compound 402, N4-[3-Chloro-4-(methoxycarbonyl-1,1-dimethylmethyleneoxy)phenyl]-N2-(3,5-dimethylphenyl)-5-fluoro-2,4-pyrimidinediamine] | < 10
48 | COC(=O)C(C)(C)Oc1ccc(Nc2nc(Nc3cc(C)cc(C)c3)ncc2F)cc1 [Compound 403, N2-(3,5-Dimethylphenyl)-N4-[4-(methoxycarbonyl-1,1-dimethylmethyleneoxy)phenyl]-5-fluoro-2,4-pyrimidinediamine] | < 10
49 | CCOC(=O)C(C)(C)Oc1ccc(Nc2nc(Cl)ncc2F)cc1Cl [Compound 407, 2-Chloro-N4-[3-chloro-4-(ethoxycarbonyl-1,1-dimethylmethyleneoxy)phenyl]-5-fluoro-4-pyrimidineamine] | < 10
50 | CCOC(=O)C(C)(C)Oc1ccc(Nc2nc(Nc3cc(OC)cc(OC)c3)ncc2F)cc1Cl [Compound 408, N4-[3-Chloro-4-(ethoxycarbonyl-1,1-dimethylmethyleneoxy)phenyl]-N2-(3,5-dimethoxyphenyl)-5-fluoro-2,4-pyrimidinediamine] | < 10

Same assay, conditions: low cell density, IgE activation, 3 pt; read-out: LD Tryptase, CHMC, IgE, 3 pt

Row | Compound | IC50 [µM]
51 | CC(C)(C)c1nnc(-c2cccc(Nc3ncc(F)c(Nc4ccc5c(c4)OCCO5)n3)c2)o1 [Compound 531, N2-[ (2-tert-Butyl-1,3,4-oxadiazol-5-yl)phenyl]-N4-(3,4-ethylenedioxyphenyl)-5-fluoro-2,4-pyrimidinediamine] | < 10
52 | CC(C)(C)c1nnc(-c2cccc(Nc3ncc(F)c(Nc4cccc(O)c4)n3)c2)o1 [Compound 532, N2-[ (2-tert-Butyl-1,3,4-oxadiazol-5-yl)phenyl]-5-fluoro-N4-(3-hydroxyphenyl)-2,4-pyrimidinediamine] | < 10
53 | CN(c1ccc2c(c1)OCCO2)c1nc(NN)ncc1F [Compound 533, N4-(3,4-Ethylenedioxyphenyl)-5-fluoro-N4-methyl-2-hydrazine-4-pyrimidineamine] | > 10
54 | CNC(=O)COc1cccc(Nc2ncc(F)c(Nc3ccc(OC)c(N)n3)n2)c1 [Compound 547, N4-(2-Amino-3-methoxypyrid-6-yl)-5-fluoro-N2[3-(N-methylaminocarbonylmethyleneoxy)phenyl]-2,4-pyrimidinediamine] | < 10

Same assay, conditions: low cell density, IgE activation, 8 pt; read-out: LD Tryptase, CHMC, IgE, 8 pt

Row | Compound | IC50 [µM]
55 | CNC(=O)COc1cccc(Nc2ncc(F)c(Nc3ccc(C(=O)NC)c(Cl)c3)n2)c1 [Compound 483, N4-[3-Chloro-4-(N-methylamino)carbonylphenyl]-5-fluoro-N2-[3-(N-methylamino)carbonylmethyleneoxyphenyl]-2,4-pyrimidinediamine] | < 10
56 | Oc1c(Cl)cc(Nc2ncc(F)c(Nc3ccc4c(c3)OC(F)(F)O4)n2)cc1Cl [Compound 564] | < 10
